Non-standard residues stand in square brackets, D forms with d. Residues, ends and D or L forms follow the SMILES beside them. ξ: configuration not given here. *: point of attachment. AFC = O=c1cc(C(F)(F)F)c2ccc(N*)cc2o1; AMC = Cc1cc(=O)oc2cc(N*)ccc12; Cbz = O=C(OCc1ccccc1)*; ξP = O=C(O)C1CCCN1
Assays:
Assay type in all cases: biochemical
[1] = target: T1, FAP (Homo sapiens, UniProt Q12884); experiment: Relative cleavage rates of coumarin (AMCC) dipeptide substrates by FAP; parameters: FAP (amino acids 38-760); FLAG (N); made in house; host or cells: 293 cells (secreted, purified from serum-free conditioned media); conditions: for relative cleavage rate by FAP: N-blocked Gly-Pro-AMCC substrates 6, normalized to N-unblocked Gly-Pro-AMCC, FAP 37 nM
T1 sequence (Q12884 38-760): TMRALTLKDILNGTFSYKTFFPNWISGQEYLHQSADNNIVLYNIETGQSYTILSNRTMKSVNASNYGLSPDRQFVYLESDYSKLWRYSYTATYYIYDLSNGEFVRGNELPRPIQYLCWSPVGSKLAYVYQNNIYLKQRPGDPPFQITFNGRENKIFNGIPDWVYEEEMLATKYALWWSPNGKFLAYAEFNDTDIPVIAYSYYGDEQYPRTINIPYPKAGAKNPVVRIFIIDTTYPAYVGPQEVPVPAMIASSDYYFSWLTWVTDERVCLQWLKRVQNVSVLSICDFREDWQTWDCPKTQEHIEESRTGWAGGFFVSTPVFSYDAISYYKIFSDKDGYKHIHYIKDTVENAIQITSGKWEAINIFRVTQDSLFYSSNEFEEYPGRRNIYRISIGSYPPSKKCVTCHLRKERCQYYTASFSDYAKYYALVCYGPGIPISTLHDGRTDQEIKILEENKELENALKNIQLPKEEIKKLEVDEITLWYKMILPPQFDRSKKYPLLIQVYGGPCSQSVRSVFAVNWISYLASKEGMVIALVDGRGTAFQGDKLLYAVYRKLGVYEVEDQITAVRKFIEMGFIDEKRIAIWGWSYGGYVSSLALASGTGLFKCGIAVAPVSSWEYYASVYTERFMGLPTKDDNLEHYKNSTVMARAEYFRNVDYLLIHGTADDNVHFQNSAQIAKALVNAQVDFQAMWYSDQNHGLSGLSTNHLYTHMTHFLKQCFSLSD
Description: (§1) The relative cleavage rates of a variety of N-blocked, C-terminal coumarin (AMCC) Gly-Pro dipeptide substrates 6 were measured. The rates were normalized to N-unblocked Gly-Pro-AMCC for FAP and DPP-4.
(§2) To examine whether FAP could cleave other N-substituted-Gly-Pro-based substrates, N-methyl-, formyl-, succinyl-, benzyloxycarbonyl-(Z-) and biotinyl-Gly-Pro-AMCC substrates 6 were synthesized and reacted with FAP (37 nM) and DPP-4 (6.8 nM).
(§3) Amino-terminus P2 was varied with the L-amino acids: alanine, aspartic acid, glutamic acid, phenylalanine, glycine, histidine, isoleucine, lysine, leucine, methionine, asparagine, proline, glutamine, arginine, serine, threonine, valine, tryptophan, and tyrosine (from left). AMCC=2-(7-amino-4-methyl-2-oxo-2H-chromen-3-yl)acetamide. For both enzymes, the amino acid adjacent in the model dipeptide substrate had little effect where the amino-terminus was unblocked. Hydrolysis rates of other P2-Pro-AMCC substrates by FAP and DPP-4 relative to Gly-Pro-AMCC include the following in Table 6:
(§4) Protease Assays—Protease activity was monitored continuously using a SpectraMax M2 microplate reader (Molecular Devices Corp., Sunnyvale Calif.) in the kinetic mode. Assays were conducted at 23° C. in 50 mM Tris (pH 7.4), 100 mM NaCl, 1 mM EDTA. The excitation/emission wavelengths for the different fluorogenic substrates were 360/460 nm (AMC), 400/505 nm (AFC), 340/425 nm (MNA), 340/510 nm (EDANS), and 337/425 nm (Abs). Standard curves of the appropriate fluorescent product versus concentration were used to convert relative fluorescence units to nmol of product produced. Substrates in the X-Pro-AMC library were used in rate assays at 5 μM final concentration. […] The kinetic parameters were calculated from Michaelis-Menten plots (V0 versus [S]) with nonlinear regression analysis using GraphPad software. kcat values were calculated under the assumption that each protease was 100% active.

[2] = target: T2, DPP-4 (Homo sapiens, UniProt P27487); experiment: Relative cleavage rates of coumarin (AMCC) dipeptide substrates by DPP-4; parameters: DPP-4 (amino acids 39-766); FLAG (N); made in house; host or cells: 293 cells (secreted, purified from serum-free conditioned media); conditions: for relative cleavage rate by DPP-4: N-blocked Gly-Pro-AMCC substrates 6, normalized to N-unblocked Gly-Pro-AMCC; for relative cleavage rate by DPP-4 / cleavage of N-substituted-Gly-Pro-AMCC substrates by DPP-4 (in words): DPP-4 6.8 nM; for cleavage of N-substituted-Gly-Pro-AMCC substrates by DPP-4 (in words): substrate concentrations up to 1 mM
Description: as §1, §2, §3, §4

[3] = target: T2, DPP-4; experiment: Hydrolysis of C-terminal coumarin dipeptide substrates by DPP-4 (kinetic constants); parameters: DPP-4 (amino acids 39-766); FLAG (N); made in house; host or cells: 293 cells (secreted, purified from serum-free conditioned media)
Description: (§5) The relative cleavage rates by FAP and several dipeptidases of N-blocked (8) and unblocked (7) Gly-Pro dipeptide substrates were measured.
(§6) The cleavage (hydrolysis) rates of various C-terminal coumarin dipeptide substrates 7-16 by FAP and DPP-4 were measured (Tables 4 and 5). The amino-terminus of the substrates was unblocked and the amino acids were varied in Table 4. The amino-terminus of the substrates was blocked and the amino acids were varied in Table 5. To extend the results obtained with the dipeptide substrate library, kinetic parameters were determined for cleavage of the unblocked dipeptide substrates by FAP (Table 4). The catalytic efficiency (kcat/Km) for substrate cleavage was greatest with Ile-Pro-AFC, followed by Ala-Pro-, Gly-Pro- and Phe-Pro-AFC, consistent with the dipeptide substrate library results (FIG. 5). […] Kinetic constants for cleavage of Ala-Pro-AFC and Gly-Pro-AFC by DPP-4 were determined (Table 4). The catalytic efficiency for Ala-Pro-AFC hydrolysis was greater than that for Gly-Pro-AFC, and consistent with the dipeptide library.
as §4
(§7) When saturating amounts of substrate could not be achieved, catalytic efficiencies (kcat/Km) were determined under pseudo-first order conditions ([S]<<the estimated Km) and fit to the following equation: Ln[St/S0]=−kobst, where St is the concentration of substrate remaining at time t, S0 is the initial substrate concentration and kobs is the apparent first order substrate cleavage constant equal to (kcat/Km) times ET, the total enzyme concentration (Copeland, R. (2000) Enzymes, A Practical Introduction to Structure, Mechanism, and Data Analysis, 2nd Ed., John Wiley and Sons, Inc, New York). The linear relationship of Ln[St/S0] versus time allows calculation of kcat/Km by dividing the slope of the plot by ET.

[4] = target: T1, FAP; experiment: Hydrolysis of C-terminal coumarin dipeptide substrates by FAP (kinetic constants); parameters: FAP (amino acids 38-760); FLAG (N); made in house; host or cells: 293 cells (secreted, purified from serum-free conditioned media); conditions: for Km / Kcat: pH 7.4, NC = no cleavage up to 1 mM substrate
Description: as §5, §6, §4, §7

[5] = target: T2, DPP-4; experiment: Inhibition of DPP-4 by N-blocked boroPro compounds (progress curves); parameters: DPP-4 (amino acids 39-766); FLAG (N); made in house; host or cells: 293 cells (secreted, purified from serum-free conditioned media); conditions: cleavage of substrate L-Ala-Pro-AFC
Description: The steady states of product formation in the absence (V0) and presence of inhibitor (Vi) were used to calculate apparent inhibition constants (Kiapp) by plotting V0/Vi−1 against inhibitor concentration.
Briefly, proteases were added to a reaction mixture containing inhibitor and substrate (Ac-Ala-AMC for APH, Z-Gly-Pro-AMC for POP, and Ala-Pro-AFC for all others) in assay buffer at 23° C. Protease activity was followed continuously as described above to monitor time-dependent inhibition. Data were plotted as V0/Vi−1 versus [I], where V0 is the rate if substrate hydrolysis in the absence of inhibitor, Vi is the steady state rate of substrate hydrolysis in the presence of inhibitor and [I] is the concentration of Ac-Gly-BoroPro.
KI values for inhibition of proteases by 5 were determined using the method of progress curves. Briefly, proteases (10-100 nM) were added to a reaction mixture containing inhibitor 5 (0-10 μM) and substrate AP-AFC in assay buffer at 23° C. […] Data were plotted as V0/Vi−1 versus [I], where V0 is the rate if substrate hydrolysis in the absence of inhibitor, Vi is the steady state rate of substrate hydrolysis in the presence of inhibitor and [I] is the concentration of 5. […] Ki, the true equilibrium inhibition constant was determined according to the following relationship: Ki=Kobs/(1+[S]/Km), where [S] is the concentration of substrate used in the assay and Km is the Michaelis constant for substrate cleavage.

[6] = DPP-4, substrates with unblocked N-termini, 23° C., pH 7.4
[7] = FAP, substrates with unblocked N-termini, 23° C. in 50 mM Tris-HCl, 100 mM NaCl, 1 mM EDTA
[8] = FAP, substrates with unblocked N-termini, 23° C.
[9] = P2-Pro-AMCC substrates, hydrolysis rates normalized to Gly-Pro-AMCC
[10] = FAP, substrates with blocked N-termini, 23° C.

T2 sequence (P27487 39-766): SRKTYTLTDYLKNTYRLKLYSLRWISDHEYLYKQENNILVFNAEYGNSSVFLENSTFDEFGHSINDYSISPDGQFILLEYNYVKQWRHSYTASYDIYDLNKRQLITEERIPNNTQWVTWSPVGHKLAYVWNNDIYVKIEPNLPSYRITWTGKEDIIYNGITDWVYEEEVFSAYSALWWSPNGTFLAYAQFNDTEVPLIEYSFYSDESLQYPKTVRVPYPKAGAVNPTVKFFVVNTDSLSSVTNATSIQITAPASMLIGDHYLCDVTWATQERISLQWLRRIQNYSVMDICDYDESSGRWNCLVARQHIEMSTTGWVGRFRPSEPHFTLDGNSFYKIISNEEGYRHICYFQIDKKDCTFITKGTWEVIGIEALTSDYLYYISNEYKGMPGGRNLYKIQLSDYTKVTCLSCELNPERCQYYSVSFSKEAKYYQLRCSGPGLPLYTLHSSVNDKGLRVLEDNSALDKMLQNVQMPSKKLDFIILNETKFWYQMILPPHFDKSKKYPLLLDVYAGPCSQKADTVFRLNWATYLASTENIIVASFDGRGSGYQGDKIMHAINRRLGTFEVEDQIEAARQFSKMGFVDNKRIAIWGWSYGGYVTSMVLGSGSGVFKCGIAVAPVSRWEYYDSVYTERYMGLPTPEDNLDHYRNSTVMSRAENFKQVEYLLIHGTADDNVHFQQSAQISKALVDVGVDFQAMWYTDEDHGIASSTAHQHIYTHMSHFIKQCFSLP

relative cleavage rate by FAP [1] [%] | relative cleavage rate by DPP-4 [2] [%] | cleavage of N-substituted-Gly-Pro-AMCC substrates by DPP-4 (in words) [2] | Molecule | Km [4, 7] [µM] | Kcat [4, 8] [s⁻¹] | further results
– | – | comparable to Gly-Pro-AMCC | N-methyl-Gly-Pro-AMCC | – | – | –
0 | 0 | no cleavage | succinyl-Gly-Pro-AMCC [HO2CCH2CH2C(═O)] | – | – | –

Further lines, the molecule ahead of its results:

Molecule | relative cleavage rate by FAP [1] [%] | relative cleavage rate by DPP-4 [2] [%] | cleavage of N-substituted-Gly-Pro-AMCC substrates by DPP-4 (in words) [2] | Km [4, 7] [µM] | Kcat [4, 8] [s⁻¹] | further results
O=C(O)c1ccc2c(c1)C(=O)OC21c2ccc(O)cc2Oc2cc(O)ccc21 [5-carboxyfluorescein] | 36 | 0 | – | – | – | –
C[C@H](N)C(=O)N1CCC[C@H]1C(=O)Nc1ccc2c(C(F)(F)F)cc(=O)oc2c1 [Ala-Pro-AFC 9, Ala-Pro-7-amino-4-trifluoromethylcoumarin] (H-Ala-Pro-{AFC}) | – | – | – | 244 ± 28 | 14.2 ± 0.9 | Kcat [3, 6]: 45.6 ± 1.7 s⁻¹; Km [3, 6]: 16 ± 3 µM
Cc1c(CC(N)=O)c(=O)oc2cc(NC(=O)[C@@H]3CCCN3C(=O)[C@@H](C)N)ccc12 [D-Ala] | – | – | – | – | – | Relative Hydrolysis rate by FAP [1, 9]: 0; Relative Hydrolysis rate by DPP-4 [2, 9]: 2
Cc1cc(=O)oc2cc(NC(=O)[C@H](C)NC(=O)CN)ccc12 [Gly-Ala-AMC 11, Gly-Ala-AMC] (H-Gly-Ala-{AMC}) | – | – | – | – | – | cleavage by FAP (in words) [4]: not cleaved
CC[C@H](C)[C@H](N)C(=O)N1CCC[C@H]1C(=O)Nc1ccc2c(C(F)(F)F)cc(=O)oc2c1 [Ile-Pro-AFC 13, Ile-Pro-AFC] (H-Ile-Pro-{AFC}) | – | – | – | 106 ± 6 | 6.9 ± 0.3 | Km, fold lower than the other P2-Pro-AFC substrates ([4]; FAP): ~2.5 fold
Cc1cc(=O)oc2cc(NC(=O)C(C)NC(=O)C(N)CCCCN)ccc12 (stereo not drawn) [Lys-Ala-AMC 12, Lys-Ala-AMC] (H-Lys-Ala-{AMC}; configuration not given here) | – | – | – | 189 ± 20 | 0.01 ± 0.001 | catalytic efficiency, fold less than for cleavage of P2-Pro-based peptides ([4]; FAP): 400-1000 fold
CC(=O)N[C@H](C)C(=O)N1CCCC1B(O)O (some centres unmarked) [N-Ac-(D)Ala-boroPro] | – | – | – | – | – | Ki [5]: > 40 µM
NC(Cc1ccccc1)C(=O)N1CCCC1C(=O)Nc1ccc2c(C(F)(F)F)cc(=O)oc2c1 (stereo not drawn) [Phe-Pro-AFC 10, Phe-Pro-AFC] (H-Phe-Pro-{AFC}; configuration not given here) | – | – | – | 245 ± 22 | 1.1 ± 0.1 | –
Cc1cc(=O)oc2cc(NC(=O)C3CCCN3C(=O)CNC(=O)OCc3ccccc3)ccc12 (stereo not drawn) [Z-Gly-Pro-AMC 14, Benzyloxycarbonyl (Z)-Gly-Pro-7-amino-4-methylcoumarin] (Cbz-Gly-[ξP]-{AMC}) | – | – | – | – | – | DPP-4 activity against substrate (in words) [3]: little activity; catalytic efficiency, fold lower than that for Gly-Pro-AFC ([4]; FAP): about 3 fold; Kcat [4, 10]: <30 s⁻¹; Km [4, 10]: > 4 µM
biotinyl-Gly-Pro-AMCC | 40 | 0 | no cleavage | – | – | –
formyl-Gly-Pro-AMCC [HC(═O)] | 130 | 7 | low rate of hydrolysis | – | – | –

Reference: patent publication US7399869B2, “Fibroblast activation protein inhibitor compounds and methods” (Genentech, Inc., priority 2005, dated 2008)
